Measurements: article PMC9728921, “Characterization of a KDM5 small molecule inhibitor with antiviral activity against hepatitis B virus” (PLOS ONE, 2022)
“Also recorded” adds a separate entry of the source.

Experiments:
KDM5C = KDM5C (Homo sapiens, UniProt P41229); test: KDM5C enzymatic assay (AlphaLISA); format: biochemical
Description: (§1) The following assay protocol was used for all histone demethylases tested except KDM1A, KDM5A, B, and D, which are described below. Compounds were serially diluted into a 384-well Alpha plate as a DMSO solution and mixed with 5 μL reaction buffer (buffer A) containing 50 mM HEPES (pH 7.0), 0.1% BSA, and 0.003% Tween-20. The enzyme of interest was pre-incubated with 15 μM of Fe^2+ for 10 min (except 30 min for KDM2B) in reaction buffer A. 5 μL of the enzyme mixture was added to each of the compound-containing wells and incubated for 10 min. The reaction was started by addition of a 5 μL mixture containing 300 nM peptide substrate, 75 μM L-ascorbic acid, and 30 μM α-ketoglutarate in buffer A. This final 15 μL of reaction mixture was incubated for 20 min for KDM5B and 1 hour for the other KDM enzymes. The reaction was quenched with 10 μL of diluted AlphaLISA Acceptor beads (1:400) in Epigenetics Buffer and incubated for 60 min. The Donor beads were diluted 1:400 into Epigenetics Buffer in the dark and 10 μL of this was added to each well and incubated for another 60 min in the dark. The assay plates were read on an Enspire plate reader (PerkinElmer) using a standard AlphaLISA program.
(§2) Data was analyzed using GraphPad Prism 6.0 (La Jolla, CA). […] IC50 values were calculated as an average of at least two independent experiments.

KDM4A = KDM4A (Homo sapiens, UniProt O75164); test: KDM4A enzymatic assay (AlphaLISA); format: biochemical
Sequence of KDM4A (O75164 whole entry): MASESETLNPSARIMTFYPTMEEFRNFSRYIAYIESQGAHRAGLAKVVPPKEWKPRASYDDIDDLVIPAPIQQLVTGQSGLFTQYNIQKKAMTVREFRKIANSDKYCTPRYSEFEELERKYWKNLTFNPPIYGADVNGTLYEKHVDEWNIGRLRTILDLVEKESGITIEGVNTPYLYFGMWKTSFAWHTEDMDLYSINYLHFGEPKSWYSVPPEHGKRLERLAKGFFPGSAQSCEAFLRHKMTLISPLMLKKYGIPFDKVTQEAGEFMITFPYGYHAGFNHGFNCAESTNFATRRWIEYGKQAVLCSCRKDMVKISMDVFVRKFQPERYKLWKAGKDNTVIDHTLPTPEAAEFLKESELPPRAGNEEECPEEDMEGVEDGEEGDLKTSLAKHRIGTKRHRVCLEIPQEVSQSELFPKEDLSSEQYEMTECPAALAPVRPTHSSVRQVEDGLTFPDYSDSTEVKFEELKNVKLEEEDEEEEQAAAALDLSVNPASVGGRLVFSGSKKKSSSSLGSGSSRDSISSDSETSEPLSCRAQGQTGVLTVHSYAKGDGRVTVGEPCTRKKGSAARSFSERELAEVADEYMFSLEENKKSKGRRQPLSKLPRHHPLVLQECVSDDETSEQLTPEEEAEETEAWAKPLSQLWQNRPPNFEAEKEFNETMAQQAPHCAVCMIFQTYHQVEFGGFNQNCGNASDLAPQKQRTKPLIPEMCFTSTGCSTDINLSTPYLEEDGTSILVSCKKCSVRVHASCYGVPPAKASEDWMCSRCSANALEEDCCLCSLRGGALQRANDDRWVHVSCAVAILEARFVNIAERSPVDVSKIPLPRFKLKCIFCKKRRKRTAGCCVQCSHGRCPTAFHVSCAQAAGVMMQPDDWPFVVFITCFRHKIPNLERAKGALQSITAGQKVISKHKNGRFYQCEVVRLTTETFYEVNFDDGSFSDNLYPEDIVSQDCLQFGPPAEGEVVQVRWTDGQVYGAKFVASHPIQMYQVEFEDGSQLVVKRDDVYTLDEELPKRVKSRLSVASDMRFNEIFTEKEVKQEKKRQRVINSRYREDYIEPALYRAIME
Description: as §1, §2

NSD3 = target: T1, NSD3 (Homo sapiens, UniProt Q9BZ95); test: Histone methyltransferase enzymatic assay, NSD3; format: biochemical; conditions: enzyme conc. 100 nM
T1 construct: 1021-1322; purchased RBC (read as Reaction Biology Corporation, named)
T1 sequence (Q9BZ95 1021-1322): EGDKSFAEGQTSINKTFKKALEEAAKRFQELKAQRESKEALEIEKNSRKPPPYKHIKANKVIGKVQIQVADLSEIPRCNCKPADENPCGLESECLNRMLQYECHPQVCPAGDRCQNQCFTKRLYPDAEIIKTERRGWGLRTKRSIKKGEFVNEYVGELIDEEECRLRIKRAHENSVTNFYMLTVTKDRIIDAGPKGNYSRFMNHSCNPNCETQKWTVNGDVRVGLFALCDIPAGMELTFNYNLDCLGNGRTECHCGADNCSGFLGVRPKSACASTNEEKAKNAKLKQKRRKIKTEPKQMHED
Description: (§3) Histone methyltransferase assays were performed in 96-well half-area optiplates (PerkinElmer) at room temperature. All concentrations are final unless noted otherwise. Compounds were serially diluted in DMSO and the final DMSO concentration was 1%. A 24 μL reaction mixture contained compound, enzyme, 200 nM of nucleosome or histone substrate, 400 nM ^3H-SAM (83.1 Ci/mmol), 50 mM Tris-HCl (pH 8.0), 50 mM NaCl, 5 mM MgCl2, 1 mM DTT, and 0.01% Tween-20. The plate was sealed, mixed on a Titramax plate shaker at 1200 rpm for 30 sec, and incubated at room temperature for 60 min. The reaction was quenched by addition of 24 μL mixture containing 5 mg/mL PVT-PEI beads and 300 μM unlabeled SAM in water. The plate was sealed, mixed as previously noted, incubated overnight, and read on a TopCount plate reader (PerkinElmer).
as §2

G9a = target: T2, G9a (Homo sapiens, UniProt Q96KQ7); test: Histone methyltransferase enzymatic assay, G9a; format: biochemical; conditions: enzyme conc. 100 nM
T2 construct: 786-1210; purchased RBC (read as Reaction Biology Corporation, named)
T2 sequence (Q96KQ7 786-1210): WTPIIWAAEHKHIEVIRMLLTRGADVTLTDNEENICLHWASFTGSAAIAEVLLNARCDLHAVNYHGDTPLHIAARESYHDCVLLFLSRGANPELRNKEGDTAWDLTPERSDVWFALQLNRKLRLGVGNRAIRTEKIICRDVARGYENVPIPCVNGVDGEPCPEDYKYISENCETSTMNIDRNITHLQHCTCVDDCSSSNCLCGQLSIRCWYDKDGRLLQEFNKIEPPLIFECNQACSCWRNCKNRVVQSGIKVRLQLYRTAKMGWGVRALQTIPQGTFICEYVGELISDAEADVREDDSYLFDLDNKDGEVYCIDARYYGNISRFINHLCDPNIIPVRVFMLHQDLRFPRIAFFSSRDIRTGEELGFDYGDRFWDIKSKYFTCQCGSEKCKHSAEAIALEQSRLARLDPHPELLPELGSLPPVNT
Description: as §3, §2

GLP = target: T3, GLP (Homo sapiens, UniProt Q9H9B1); test: Histone methyltransferase enzymatic assay, GLP; format: biochemical; conditions: enzyme conc. 100 nM; read-out: IC50
T3 construct: 894-1298; purchased RBC (read as Reaction Biology Corporation, named)
T3 sequence (Q9H9B1 894-1298): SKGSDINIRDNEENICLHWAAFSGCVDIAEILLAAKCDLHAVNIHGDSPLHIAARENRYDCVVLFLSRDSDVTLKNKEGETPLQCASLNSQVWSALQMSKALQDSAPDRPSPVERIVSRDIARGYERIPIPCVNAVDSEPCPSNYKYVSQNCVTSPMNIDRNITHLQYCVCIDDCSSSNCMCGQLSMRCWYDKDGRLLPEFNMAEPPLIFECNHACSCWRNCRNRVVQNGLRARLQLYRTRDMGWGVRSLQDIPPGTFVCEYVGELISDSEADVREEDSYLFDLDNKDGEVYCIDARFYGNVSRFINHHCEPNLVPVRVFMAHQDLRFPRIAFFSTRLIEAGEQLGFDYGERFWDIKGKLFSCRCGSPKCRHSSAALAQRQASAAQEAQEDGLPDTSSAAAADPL
Description: as §3, §2

PRMT1 = target: T4, PRMT1 (Homo sapiens, UniProt Q99873); test: Histone methyltransferase enzymatic assay, PRMT1; format: biochemical; conditions: enzyme conc. 100 nM
T4 construct: 2-371
T4 sequence (Q99873 2-371): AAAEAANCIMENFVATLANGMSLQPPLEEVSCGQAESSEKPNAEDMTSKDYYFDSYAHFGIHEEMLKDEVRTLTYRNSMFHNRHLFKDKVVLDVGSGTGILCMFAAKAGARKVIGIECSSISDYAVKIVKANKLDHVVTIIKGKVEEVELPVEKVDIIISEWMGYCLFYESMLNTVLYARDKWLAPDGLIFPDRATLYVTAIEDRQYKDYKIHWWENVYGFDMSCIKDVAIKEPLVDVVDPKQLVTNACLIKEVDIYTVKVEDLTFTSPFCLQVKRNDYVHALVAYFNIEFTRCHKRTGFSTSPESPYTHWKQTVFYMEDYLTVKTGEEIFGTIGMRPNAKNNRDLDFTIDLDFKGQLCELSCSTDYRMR
Description: as §3, §2

HDAC-1 = target: T5, HDAC-1 (Homo sapiens, UniProt Q13547); test: HDAC-1 histone deacetylase assay (FLUOR DE LYS); format: biochemical; conditions: enzyme conc. 5 nM
T5 construct: Full length; purchased BPS
T5 sequence (Q13547 whole entry): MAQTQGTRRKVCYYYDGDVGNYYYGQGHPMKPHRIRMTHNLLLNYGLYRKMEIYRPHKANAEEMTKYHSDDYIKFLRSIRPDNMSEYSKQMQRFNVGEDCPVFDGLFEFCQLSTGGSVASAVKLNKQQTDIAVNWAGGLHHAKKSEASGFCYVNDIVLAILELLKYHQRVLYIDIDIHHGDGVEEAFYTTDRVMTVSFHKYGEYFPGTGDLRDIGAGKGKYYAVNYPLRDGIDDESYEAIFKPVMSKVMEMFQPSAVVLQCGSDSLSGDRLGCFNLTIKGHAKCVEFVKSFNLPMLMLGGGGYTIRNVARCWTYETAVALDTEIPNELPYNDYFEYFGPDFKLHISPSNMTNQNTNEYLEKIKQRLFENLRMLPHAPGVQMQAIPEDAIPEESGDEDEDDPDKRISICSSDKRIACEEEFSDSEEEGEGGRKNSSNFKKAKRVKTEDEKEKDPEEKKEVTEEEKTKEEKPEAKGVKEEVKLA

HBV cccDNA = test: cccDNA levels by Southern blot in HBV-infected PHH; format: cell-based, Hepatitis B virus; conditions: 1 or 10 µM every three to four days for 14 days
Description: PHH were plated in 24-well plates at 350,000–400,000 live cells per well and infected with HBV genotype D as described above. […] DNA was isolated from PHH using a MasterPure Complete DNA Purification kit (Epicentre, Madison, WI; MC85200) according to the manufacturer’s instructions, but omitting ProteinaseK or RNaseA treatment. After isolation, DNA was treated with T5 exonuclease (New England Biolabs, Ipswich, MA; M0363S) according to the manufacturer’s instructions.
cccDNA and host mitochondrial DNA (ND4) levels were examined by Southern blot using branched DNA signal amplification (bDNA) method as previously described. All probes and reagents were purchased from Thermo Fisher Scientific.
PHH were infected with HBV for three days prior to initiation of GS-5801 treatment. […] Total DNA was isolated, treated with T5 exonuclease to reduce levels of relaxed circular HBV DNA (rcDNA), and probed for cccDNA and mitochondrial DNA (Mt ND4: NADH-ubiquinone oxidoreductase chain 4) by Southern blot.

HBV (genotype C, GTC) = test: HBV mouse efficacy model (uPA-SCID mice with humanized livers), serum HBV DNA and HBsAg; format: in vivo; conditions: 30 or 100 mg/kg p.o. qd x 7d, one week on one week off, 56 days
Description: The in vivo and in vitro hepatocyte infection model portions of the study were performed by PhoenixBio (Higashi-Hiroshima, Japan). […] Mice were infected with HBV GTC virus (PhoenixBio; PBB004, Lot #160205) and had serum HBV titer levels greater than 1.0E+08 copies/mL seven days prior to study initiation. HBV-infected mice were treated once daily (p.o.) for seven days (Day 0–6) with deionized water for acclimation. […] Fifty μL of blood was collected from animals under isoflurane anesthesia via the retro-orbital plexus/sinus and centrifuged for serum collection for HBsAg and HBV DNA measurements described below. At termination of study (Day 56), 100–200 mg of tissue was harvested from the left lateral liver lobe of all animals.
For in vivo mouse studies, serum HBsAg concentrations were determined by SRL, Inc. (Tokyo, Japan) based on the Chemiluminescent Enzyme Immuno Assay (CLEIA) developed by Fujirebio (Lumipulse® Presto II).
HBV DNA was extracted from 5 μL of serum using the SMITEST EX-R&D Nucleic Acid Extraction Kit (Medical & Biological Laboratories, CO. LTD, Nagoya, Japan) and dissolved in 20 μL nuclease-free water (Thermo Fisher Scientific Inc., Waltham, MA). […] The average serum HBV DNA level was calculated from the values of the two separate wells. […]

Sequence of KDM5C (P41229 whole entry): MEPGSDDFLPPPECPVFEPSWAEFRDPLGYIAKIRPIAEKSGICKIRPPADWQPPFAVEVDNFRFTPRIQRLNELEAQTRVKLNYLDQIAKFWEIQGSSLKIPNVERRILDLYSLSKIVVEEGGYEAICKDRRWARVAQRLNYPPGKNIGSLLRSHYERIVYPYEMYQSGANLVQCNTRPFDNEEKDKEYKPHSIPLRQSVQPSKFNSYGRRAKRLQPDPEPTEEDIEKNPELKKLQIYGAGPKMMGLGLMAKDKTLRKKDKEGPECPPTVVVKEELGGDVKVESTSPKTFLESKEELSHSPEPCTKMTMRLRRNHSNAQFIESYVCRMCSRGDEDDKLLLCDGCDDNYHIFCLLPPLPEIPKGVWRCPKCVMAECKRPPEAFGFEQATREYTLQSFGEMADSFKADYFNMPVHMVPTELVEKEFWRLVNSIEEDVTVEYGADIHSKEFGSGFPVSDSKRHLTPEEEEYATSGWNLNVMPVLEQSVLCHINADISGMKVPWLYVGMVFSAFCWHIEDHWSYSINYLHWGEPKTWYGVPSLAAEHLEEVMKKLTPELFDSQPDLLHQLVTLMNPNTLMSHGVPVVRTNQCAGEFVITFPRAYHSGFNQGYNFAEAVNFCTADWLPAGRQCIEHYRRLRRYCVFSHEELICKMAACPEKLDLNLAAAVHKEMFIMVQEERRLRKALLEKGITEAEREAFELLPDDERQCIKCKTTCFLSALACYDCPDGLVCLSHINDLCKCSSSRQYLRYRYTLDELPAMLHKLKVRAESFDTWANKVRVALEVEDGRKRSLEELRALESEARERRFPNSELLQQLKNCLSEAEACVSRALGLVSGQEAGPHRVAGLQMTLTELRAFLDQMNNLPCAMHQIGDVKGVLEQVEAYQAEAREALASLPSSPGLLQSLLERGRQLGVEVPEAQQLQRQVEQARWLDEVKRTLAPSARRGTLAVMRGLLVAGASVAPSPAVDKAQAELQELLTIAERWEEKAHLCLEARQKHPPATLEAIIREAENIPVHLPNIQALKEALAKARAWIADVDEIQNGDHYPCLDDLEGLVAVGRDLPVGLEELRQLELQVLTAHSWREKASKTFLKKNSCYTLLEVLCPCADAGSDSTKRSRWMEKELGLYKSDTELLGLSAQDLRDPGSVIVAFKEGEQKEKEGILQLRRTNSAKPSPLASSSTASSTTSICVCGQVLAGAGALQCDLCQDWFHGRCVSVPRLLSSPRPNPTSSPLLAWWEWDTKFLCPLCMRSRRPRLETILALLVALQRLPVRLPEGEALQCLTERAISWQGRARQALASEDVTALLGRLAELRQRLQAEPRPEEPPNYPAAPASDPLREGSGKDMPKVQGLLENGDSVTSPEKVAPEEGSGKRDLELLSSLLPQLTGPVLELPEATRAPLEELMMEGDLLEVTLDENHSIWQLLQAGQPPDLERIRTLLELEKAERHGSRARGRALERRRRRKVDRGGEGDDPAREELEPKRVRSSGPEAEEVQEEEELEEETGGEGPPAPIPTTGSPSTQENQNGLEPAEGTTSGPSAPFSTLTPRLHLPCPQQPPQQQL

Row | SMILES | Fold Selectivity Compared to KDM5A (KDM5C; IC50 of KDM5C over KDM5A) [fold] | IC50 (KDM5C; enzyme concentration 1 nM) [µM] | Fold Selectivity Compared to KDM5A (KDM4A; IC50 of KDM4A over KDM5A) [fold] | IC50 (KDM4A; enzyme concentration 0.2 nM) [µM] | IC50 (NSD3) [µM] | IC50 (G9a) [µM] | IC50 (GLP) [µM] | IC50 (PRMT1) [µM] | IC50 (HDAC-1) [µM] | levels of cccDNA (HBV cccDNA) | antiviral efficacy: serum HBsAg and HBV DNA (HBV (genotype C, GTC))
1 | CCN(CCN(C)C)C(=O)CNCc1cc(C(=O)O)ccn1 [GS-080] | 10 | 0.0037 | 20 | 0.0072 | > 100 | > 100 | > 100 | > 100 | > 100 |  | 
2 | CCOC(=O)c1ccnc(CNCC(=O)N(CC)CCN(C)C)c1 [GS-5801] |  |  |  |  |  |  |  |  |  | did not alter levels of cccDNA; also recorded: does not reduce levels of cccDNA; also recorded: no sign of reduced cccDNA | did not result in changes in the amounts of HBsAg or HBV DNA; also recorded: did not have antiviral activity at either dose tested
